Data reported in patent publication US20070197523A1, “CALCIUM CHANNEL ANTAGONISTS” (ICAGEN, INC., priority 2005, published 2007).

What follows are compounds tested on T-type calcium channels (assay: T-type calcium channel inhibitory activity (fluorometric FLIPR Fluo-4 and whole cell patch clamp)). Conditions: inhibition of T-type calcium channels; cells natively expressing or HEK-293 cells expressing recombinant channels.
Format: cell-based, mammalian
Description: T-type calcium channel inhibitory activity of some compounds of the invention was evaluated using both fluorometric as well as electrophysiological measurement methodologies, which are known to those skilled in the art. Fluorescence measurement of changes in intracellular calcium due to entry of calcium through T-type calcium channels was assessed using calcium sensitive fluorescent dyes Fluo-4 and Fluo-3. In brief, cells natively expressing T-type channels or HEK-293 cells transiently or stably expressing recombinant mammalian T-type calcium channels grown in 96-well tissue culture plates in DMEM/High glucose, Hyclone, Fetal Bovine Serum (10%), and 2 mM sodium pyruvate 2 mM (and for cells lines recombinantly expressing T-type calcium channels, G418 @ 400 mg/liter) were loaded with 4 μM Fluo-4 made up in Earls Balanced Salt Solution (EBSS). After incubation for 30 minutes at room temperature, cells were washed with low calcium (0.5 mM) EBSS to remove extracellular Fluo-4. Baseline fluorescence was measured in a FLIPR (FLuorescence Image Plate Reader) (Molecular Devices Inc) after applying test compounds at desired concentration for 5-10 minutes. The effect of test compound on calcium entry was assessed by monitoring changes in Fluo-4 fluorescence following an elevation of extracellular calcium concentration from 0.5 mM to 5 mM. […] Native cells natively expressing T-type channels or HEK-293 cells transiently or stably expressing recombinant mammalian T-type calcium channels were grown in DMEM/High glucose, Hyclone, Fetal Bovine Serum (10%), 2 mM sodium pyruvate 2 mM (and for cells lines recombinantly expressing T-type calcium channels, G418 @ 400 mg/liter) on glass coverslips in 35 mm tissue culture dishes. Experiments were performed by placing T-type calcium channels expressing cells in a recording chamber perfused with EBSS (which contains (in mM): 132 NaCl, 5.4 KCl, 1.8 CaCl2, 0.8 MgCl2, 10 Hepes, 5 glucose, pH 7.4 with NaOH) on the stage of an inverted microscope. Electrical currents were measured using the whole cell configuration of the patch clamp technique (Axopatch 200B, Axon Instruments (Molecular Devices) (see Hamill et al (1981) Pflugers Arch. 1981 391:85-100) using 2-2.5 MOhm resistance glass pipettes filled with 135 CsF, 5 CsCl, 5 NaCl, 5 EGTA, 10 HEPES, pH 7.3 with CsOH, Osmolarity ˜288 mOsm. Test compound effects were typically assessed under conditions in which approximately half of the available channels were inactivated either by an 8 second conditioning depolarization from a holding potential of −100 mV to a potential ranging from −70 mV to −60 mV or by continually holding the membrane potential at −70 mV. Test compounds were assessed for their ability to reduce the amplitude of the inward T-type calcium current elicited by a 100 ms step depolarization −20 or −30 mV.

`CCOc1cccc(S(=O)(=O)c2cnc(N(CCCN3CCOCC3)c3nc(C)nc(NCCOC)c3F)s2)c1` [Example 15, N-[5-(3-ethoxy-benzenesulfonyl)-thiazol-2-yl]-5-fluoro-N′-(2-methoxy-ethyl)-2-methyl-N-(3′-morpholin-4-yl-propyl)-pyrimidine-4,6-diamine] and `CCOc1cccc(S(=O)(=O)c2cnc(Nc3cc(NCCN4CCCC4)nc(C(F)(F)F)n3)s2)c1` [Example 16, N-[5-(3-Ethoxy-benzenesulfonyl)-thiazol-2-yl]-N′-(2-pyrrolidin-1-yl-ethyl)-2-trifluoromethyl-pyrimidine-4,6-diamine] fall in the same range of IC50: 0.001 to 1 µM for the first, 0.001 to 1 µM for the second.

`CCOc1cccc(S(=O)(=O)c2cnc(Nc3cc(NCCOC)nc(C(F)(F)F)n3)s2)c1` [Example 17, N-[5-(3-ethoxy-benzenesulfonyl)-thiazol-2-yl]-N′-(2-methoxy-ethyl)-2-trifluoromethyl-pyrimidine-4,6-diamine] and `CCOc1cccc(S(=O)(=O)c2cnc(Nc3cc(NCC(C)(C)N)nc(C(F)(F)F)n3)s2)c1` [Example 18, N-(2-Amino-2-methyl-propyl)-N′-[5-(3-ethoxy-benzenesulfonyl)-thiazol-2-yl]-2-trifluoromethyl-pyrimidine-4,6-diamine] fall in the same range of IC50: 0.001 to 1 µM for the first, 0.001 to 1 µM for the second.

`CCOc1cccc(S(=O)(=O)c2cnc(Nc3cc(NCCN(C)C)nc(C(F)(F)F)n3)s2)c1` [Example 19, N-(2-Dimethylamino-ethyl)-N′-[5-(3-ethoxy-benzenesulfonyl)-thiazol-2-yl]-2-trifluoromethyl-pyrimidine-4,6-diamine] and `CCOc1cccc(S(=O)(=O)c2cnc(Nc3cc(OCCN4CCCC4)nc(C)n3)s2)c1` [Example 20, [5-(3-Ethoxy-benzenesulfonyl)-thiazol-2-yl]-[2-methyl-6-(2-pyrrolidin-1-yl-ethoxy)-pyrimidin-4-yl]-amine] fall in the same range of IC50: 0.001 to 1 µM for the first, 0.001 to 1 µM for the second.

`CCOc1cccc(S(=O)(=O)c2cnc(Nc3cc(OC[C@H]4CCCN4)nc(C)n3)s2)c1` [Example 21, N-[5-(3-ethoxy-benzenesulfonyl)-thiazol-2-yl]-[2-methyl-((6R)-1-pyrrolidin-2-yl-methoxy)pyrimidin-4-yl]-amine] and `CCOc1cccc(S(=O)(=O)c2cnc(Nc3cc(OC4CCNC4)nc(C)n3)s2)c1` (centres unmarked) [Example 22, N-[5-(3-ethoxy-benzenesulfonyl)-thiazol-2-yl]-[2-methyl-6-(pyrrolidin-3-yloxy)pyrimidin-4-yl]-amine] fall in the same range of IC50: 0.001 to 1 µM for the first, 0.001 to 1 µM for the second.

`CCOc1cccc(S(=O)(=O)c2cnc(Nc3cc(OCCOC)nc(C)n3)s2)c1` [Example 23, N-[5-(3-ethoxy-benzenesulfonyl)-thiazol-2-yl]-[6-(2-methoxy-ethoxy)-2-methyl-pyrimidin-4-yl]-amine] and `CCOc1cccc(S(=O)(=O)c2cnc(Nc3nc(C)nc(OCCN4CCCC4)c3F)s2)c1` [Example 24, [5-(3-Ethoxy-benzenesulfonyl)-thiazol-2-yl]-[5-fluoro-2-methyl-6-(2-pyrrolidin-1-yl-ethoxy)-pyrimidin-4-yl]-amine] fall in the same range of IC50: 0.001 to 1 µM for the first, 0.001 to 1 µM for the second.

Compared with `CCOc1cccc(S(=O)(=O)c2cnc(Nc3nc(C)nc(OCCOC)c3F)s2)c1` [Example 25, N-[5-(3-ethoxy-benzenesulfonyl)-thiazol-2-yl]-[5-fluoro-6-(2-methoxy-ethoxy)-2-methyl-pyrimidin-4-yl]-amine], `CCOc1cccc(S(=O)(=O)c2cnc(Nc3nc(C)nc(OCCC4CCCC4)c3F)s2)c1` [Example 26, [6-(2-Cyclopentyl-ethoxy)-5-fluoro-2-methyl-pyrimidn-4-yl]-[5-(3-ethoxy-benzenesulfonyl)-thiazol-2-yl]-amine] is higher in IC50: 0.001 to 1 µM for the first, 10 to 1000 µM for the second.

`CCOc1cccc(S(=O)(=O)c2cnc(Nc3nc(C)nc(OCCN(C)C)c3F)s2)c1` [Example 27, [6-(2-Dimethylamino-ethoxy)-5-fluoro-2-methyl-pyrimidn-4-yl]-[5-(3-ethoxy-benzenesulfonyl)-thiazol-2-yl]-amine] and `CCOc1cccc(S(=O)(=O)c2cnc(Nc3cc(OCCN(C)C)nc(C(F)(F)F)n3)s2)c1` [Example 28, [6-(2-Dimethylamino-ethoxy)-2-trifluormethyl-pyrimidin-4-yl]-[5-(3-Ethoxy-benzenesulfonyl)-thiazol-2-yl]-amine] fall in the same range of IC50: 0.001 to 1 µM for the first, 0.001 to 1 µM for the second.

First: CCOc1cccc(S(=O)(=O)c2cnc(Nc3cc(C#CCOC)nc(C)n3)s2)c1 [Example 29, [5-(3-Ethoxy-benzenesulfonyl)-thiazol-2-yl]-[6-(3-methoxy-prop-1-ynyl)-2-methyl-pyrimidin-4-yl]-amine]
Second: CCOc1cccc(S(=O)(=O)c2cnc(Nc3cc(C#CCN(C)C(=O)OC(C)(C)C)nc(C)n3)s2)c1 [Example 30, (3-{6-[5-(3-Ethoxy-benzenesulfonyl)-thiazol-2ylamino]-2-methyl-pyrimidin-4-yl}-prop-2-ynyl)-methyl-carbamic acid tert-butyl ester]
The IC50 of the first is higher: 1 to 10 µM for the first, 0.001 to 1 µM for the second. The second is the more potent here.

`CCOc1cccc(S(=O)(=O)c2cnc(Nc3cc(C#CC(C)(C)N(C)C(=O)OC(C)(C)C)nc(C)n3)s2)c1` [Example 31, (3-{6-[5-(3-Ethoxy-benzenesulfonyl)-thiazol-2ylamino]-2-methyl-pyrimidin-4-yl}-1,1-dimethyl-prop-2-ynyl)-methyl-carbamic acid tert-butyl ester] and `CCOc1cccc(S(=O)(=O)c2cnc(Nc3cc(CCCOC)nc(C)n3)s2)c1` [Example 32, [5-(3-Ethoxy-benzenesulfonyl)-thiazol-2-yl]-[6-(3-methoxy-propyl)-2-methyl-pyrimidin-4-yl]-amine] fall in the same range of IC50: 0.001 to 1 µM for the first, 0.001 to 1 µM for the second.

`CCOc1cccc(S(=O)(=O)c2cnc(Nc3cc(CCC(C)(C)N)nc(C)n3)s2)c1` [Example 36, [6-(3-Amino-3-methyl-butyl)-2-methyl-pyrimidin-4-yl]-[5-(3-ethoxy-benzenesulfonyl)-thiazol-2yl]-amine] and “[5-(3-Ethoxy-benzenesulfonyl)-thiazol-2-yl]-[6-(3-methylamino)propyl)-2-methyl-pyrimidin-4-yl]-amine [Example 35]” fall in the same range of IC50: 0.001 to 1 µM for the first, 0.001 to 1 µM for the second.
